Consider 34 compounds from US6855730B2, “3-methylidenyl-2-indolinone modulators of protein kinase” (Sugen, Inc., priority 1998, dated 2005).

Molecules are shown by their SMILES.

One assay has as its target EGFR (Homo sapiens, UniProt P00533). Briefly: Biochemical EGFR assay (ELISA, A431 cell lysate). Details: A431 cell lysate (Screening Lab, SUGEN, Inc.); host or cells: A431. The conditions noted are these: read-out: bio EGFr IC50. The method, boiled down: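 EGFR captured from A431 cell lysate onto anti-EGFR-coated plates, then incubated with test compound for 30 min at room temperature. Tyrosine phosphorylation with ATP/MnCl2 was stopped with EDTA after 5 min and detected by anti-phosphotyrosine ELISA with peroxidase/ABTS read-out.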

For another assay, the system named is A431 cells. Briefly: A431 growth assay (2% FBS). The class given is cell-based. The settings on record: Homo sapiens, A-431, read-out: A431 growth (2% FBS) IC50.

EGFR, sequence (P00533 25-1210): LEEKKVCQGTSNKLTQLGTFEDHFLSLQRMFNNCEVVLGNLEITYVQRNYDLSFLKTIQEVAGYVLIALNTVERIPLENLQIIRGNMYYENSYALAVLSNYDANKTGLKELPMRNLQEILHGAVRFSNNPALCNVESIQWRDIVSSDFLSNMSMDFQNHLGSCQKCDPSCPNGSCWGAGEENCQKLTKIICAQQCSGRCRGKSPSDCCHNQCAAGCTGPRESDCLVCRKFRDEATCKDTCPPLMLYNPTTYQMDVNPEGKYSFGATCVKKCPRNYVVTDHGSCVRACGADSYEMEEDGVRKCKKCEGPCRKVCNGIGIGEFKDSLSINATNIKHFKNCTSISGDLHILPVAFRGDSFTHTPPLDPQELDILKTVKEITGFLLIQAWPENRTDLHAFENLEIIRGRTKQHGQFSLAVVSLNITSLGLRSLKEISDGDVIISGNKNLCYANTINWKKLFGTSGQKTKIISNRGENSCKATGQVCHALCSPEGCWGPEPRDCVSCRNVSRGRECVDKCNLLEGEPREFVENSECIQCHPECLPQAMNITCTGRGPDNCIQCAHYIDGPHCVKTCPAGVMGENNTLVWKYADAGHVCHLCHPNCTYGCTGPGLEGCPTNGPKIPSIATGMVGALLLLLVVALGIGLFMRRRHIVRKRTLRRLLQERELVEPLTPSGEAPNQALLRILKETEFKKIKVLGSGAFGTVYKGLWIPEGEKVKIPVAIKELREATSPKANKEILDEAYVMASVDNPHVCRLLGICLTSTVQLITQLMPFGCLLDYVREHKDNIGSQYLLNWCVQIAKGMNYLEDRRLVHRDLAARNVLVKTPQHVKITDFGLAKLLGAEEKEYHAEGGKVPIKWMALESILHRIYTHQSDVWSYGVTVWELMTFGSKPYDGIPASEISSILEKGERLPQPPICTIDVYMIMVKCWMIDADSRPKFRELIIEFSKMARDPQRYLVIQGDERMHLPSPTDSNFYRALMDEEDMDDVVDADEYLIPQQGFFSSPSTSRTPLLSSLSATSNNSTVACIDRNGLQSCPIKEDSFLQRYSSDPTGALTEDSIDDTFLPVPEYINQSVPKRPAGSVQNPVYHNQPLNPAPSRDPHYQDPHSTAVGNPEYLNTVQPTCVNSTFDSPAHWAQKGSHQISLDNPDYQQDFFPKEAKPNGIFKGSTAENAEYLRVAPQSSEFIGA

On to `COc1ccc(/C=C2/C(=O)Nc3ccc(F)cc32)cc1C1CCCC1` [Example 11, 3-(3-Cyclopentyl-4-methoxybenzylidene)-5-fluoro-1,3-dihydroindol-2-one], for which the IC50 is above 100 µM at EGFR and 12.5 µM with A431 cells.

`COc1cc(/C=C2/C(=O)Nc3ccccc32)c(-c2ccc3ccccc3c2)cc1OC` [Example 62, 3-(4,5-Dimethoxy-2-naphthalen-2-ylbenzylidene)-1,3-dihydroindol-2-one]: the IC50 at EGFR is above 100 µM; with A431 cells, 6 µM.

For `CC1(C)CCc2cc(C=C3C(=O)Nc4ccc(Br)cc43)ccc2O1` (racemic) [Example 34, 5-Bromo-3-(2,2-dimethylchroman-6-ylmethylene)-1,3-dihydroindol-2-one], the IC50 is above 100 µM at EGFR and 4.4 µM in the assay with A431 cells.

As for `CCOc1cccc(-c2cc(C=C3C(=O)Nc4ccccc43)ccc2OC)c1` [Example 46, 3-(3′-Ethoxy-6-methoxybiphenyl-3-ylmethylene)-1,3-dihydroindol-2-one], the IC50 on EGFR is above 100 µM; in the assay with A431 cells it was 5.5 µM.

With `COc1cc(C)c(C=C2C(=O)Nc3cc(NC(C)=O)ccc32)cc1C(C)C` [Example 27, N-[3-(5-Isopropyl-4-methoxy-2-methyl-benzylidene)-2-oxo-2,3-dihydro-1H-indol-6-yl]-acetamide], the IC50 at EGFR was above 100 µM; with A431 cells, 6.4 µM.

With `CC(C)c1cc(/C=C2/C(=O)Nc3ccc(Cl)cc32)cc(C(C)C)c1OCCN1CCOCC1` [Example 24, 5-chloro-3-[3,5-diisopropyl-4-(2-morpholin-4-ylethoxy)-benzylidene]-1,3-dihydroindol-2-one], the IC50 on EGFR is above 100 µM; with A431 cells, 4.5 µM.

For the compound `COc1ccc(C=C2C(=O)Nc3ccccc32)cc1-c1cccc(NC(C)=O)c1` [Example 29, N-[2′-Methoxy-5′-(2-oxo-1,2-dihydroindol-3-ylidenemethyl)-biphenyl-3-yl]-acetamide], the results for the IC50 on EGFR and in the assay with A431 cells were above 100 µM and 5.6 µM, respectively.

For the compound `COc1cc(C)c(C=C2C(=O)Nc3ccccc32)cc1C(C)C` [Example 8, 3-(5-Isopropyl-4-methoxy-2-methylbenzylidene)-1,3-dihydroindol-2-one], the results for the IC50 on EGFR and in the assay on A431 cells were above 100 µM and 0.95 µM, respectively.

For `COc1cc(C)c(C=C2C(=O)Nc3ccc(Cl)cc32)cc1C(C)C` [Example 9, 5-Chloro-3-(5-isopropyl-4-methoxy-2-methylbenzylidene)-1,3-dihydroindol-2-one], the results for the IC50 on EGFR and with A431 cells were above 100 µM and 17.3 µM, respectively.

`CCOc1cccc(-c2cc(OC)c(OC)cc2/C=C2/C(=O)Nc3ccccc32)c1` [Example 58, 3-(3′-Ethoxy-4,5-dimethoxybiphenyl-2-ylmethylene)-1,3-dihydroindol-2-one]: the IC50 on EGFR is above 100 µM; with A431 cells, 10.5 µM.

For the compound `COc1cc(C=C2C(=O)Nc3ccccc32)c(-c2ccccc2OC)cc1OC` [Example 49, 3-(4,5,2′-Trimethoxybiphenyl-2-ylmethylene)-1,3-dihydroindol-2-one], the IC50 on EGFR is above 100 µM; with A431 cells, 20.7 µM.

Take `COc1ccc(/C=C2/C(=O)Nc3ccccc32)cc1C1CCCC1` [Example 10, 3-(3-Cyclopentyl-4-methoxybenzylidene)-1,3-dihydroindol-2-one]: the IC50 at EGFR is above 100 µM; in the assay with A431 cells it was 8.5 µM.

On to `COc1c(C(C)C)cc(/C=C2/C(=O)Nc3ccc(C)cc32)cc1C(C)C` [Example 19, 3-(3,5-Diisopropyl-4-methoxybenzylidene)-5-methyl-1,3-dihydroindol-2-one], for which the figures for the IC50 at EGFR and in the assay on A431 cells were above 100 µM and 4.3 µM, respectively.

On to `COc1cc(C)c(/C=C2/C(=O)Nc3ccc(F)cc32)cc1C(C)C` [Example 30, 5-Fluoro-3-(5-isopropyl-4-methoxy-2-methyl-benzylidene)-1,3-dihydroindol-2-one], for which the concentration for half-maximal inhibition (IC50) at EGFR was above 100 µM; in the assay with A431 cells, 9.9 µM.

`COc1ccc2c(c1)/C(=C\c1cc(C(C)C)c(OC)c(C(C)C)c1)C(=O)N2` [Example 17, 3-(3,5-Diisopropyl-4-methoxybenzylidene)-5-methoxy-1,3-dihydroindol-2-one]: the values for the IC50 on EGFR and in the assay with A431 cells were above 100 µM and 4.3 µM, respectively.

Turning to `COc1cc(C)c(/C=C2/C(=O)Nc3ccc(Br)cc32)cc1C(C)C` [Example 36, 5-Bromo-3-(5-isopropyl-4-methoxy-2-methyl-benzylidene)-1,3-dihydroindol-2-one], the IC50 at EGFR was above 100 µM; in the assay on A431 cells, above 25 µM.

Turning to `COc1c(C(C)C)cc(/C=C2/C(=O)Nc3ccc(C(C)=O)cc32)cc1C(C)C` [Example 5, 5-Acetyl-3-(3,5-diisopropyl-4-methoxybenzylidene)-1,3dihydroindol-2-one], the results for the IC50 on EGFR and in the assay on A431 cells were above 100 µM and 4.3 µM, respectively.

With `COc1ccc(/C=C2/C(=O)Nc3ccccc32)cc1C1CCCCC1` [Example 12, 3-(3-Cyclohexyl-4-methoxybenzylidene)-1,3-dihydroindol-2-one], the results for the IC50 on EGFR and in the assay on A431 cells were above 100 µM and 7.9 µM, respectively.

As to `CC1(C)CCc2cc(/C=C3/C(=O)Nc4ccc(Cl)cc43)ccc2O1` [Example 15, 5-Chloro-3-(2,2-dimethyl-chroman-6-ylmethylene)-1,3-dihydroindol-2-one], the values for the IC50 at EGFR and in the assay with A431 cells were above 100 µM and 4.8 µM, respectively.

Regarding `COc1c(C)cc(/C=C2/C(=O)Nc3ccc(Cl)cc32)cc1C` [Example 21, 5-Chloro-3-(4-methoxy-3,5-dimethylbenzylidene)-1,3-dihydroindol-2-one], the IC50 is above 100 µM at EGFR and 15.3 µM in the assay on A431 cells.

Consider `COc1cccc(-c2cc(OC)c(OC)cc2/C=C2/C(=O)Nc3ccc(Cl)cc32)c1` [Example 61, 5-Chloro-3-(4,5-3′-Trimethoxybiphenyl-2-ylmethylene)-1,3-dihydroindol-2-one], for which the IC50 was above 100 µM on EGFR and above 25 µM in the assay with A431 cells.

Regarding `COc1ccc(/C=C2/C(=O)Nc3cc(NC(C)=O)ccc32)cc1-c1ccsc1` [Example 18, N-[3-(4-Methoxy-3-thiophene-3-ylbenzylidene)-2-oxo-2,3-dihydro-1H-indol-6-yl]-acetamide], the figures for the IC50 on EGFR and in the assay with A431 cells were above 100 µM and 0.6 µM, respectively.

With `CC(=O)Nc1ccc2c(c1)NC(=O)/C2=C/c1ccc(OCCN2CCOCC2)c(C2CCCCC2)c1` [Example 16, N-{3-[3-Cyclohexyl-4-(2-morpholin-4-ylethoxy)-benzylidene]-2-oxo-2,3-dihydro-1H-indol-6-yl}-acetamide], the half-inhibitory concentration (IC50) was above 100 µM on EGFR and 4.1 µM in the assay with A431 cells.

Consider `COc1c(C(C)C)cc(/C=C2/C(=O)Nc3ccc(N)cc32)cc1C(C)C` [Example 20, 5-Amino-3-(3,5-diisopropyl-4-methoxy-benzylidene)-1,3-dihydroindol-2-one], for which the IC50 on EGFR was above 100 µM; in the assay with A431 cells, 29.5 µM.

In the case of `COC(=O)c1ccc2c(c1)/C(=C\c1cc(C(C)C)c(OC)c(C(C)C)c1)C(=O)N2` [Example 6, 3-(3,5-Diisopropyl-4-methoxybenzylidene)-2-oxo-2,3-dihydro-1H-indole-5-carboxylic acid methyl ester], the IC50 on EGFR was above 100 µM; with A431 cells, 2.9 µM.

Consider `CC(C)c1cc(/C=C2/C(=O)Nc3ccc(Br)cc32)cc(C(C)C)c1OCCN1CCOCC1` [Example 57, 5-Bromo-3-[3,5-diisopropyl-4-(2-morpholin-4-ylethoxy)benzylidene]-1,3-dihydroindol-2-one], for which the IC50 at EGFR is above 100 µM; with A431 cells it was 5.8 µM.

With `COc1ccc(/C=C2/C(=O)Nc3ccc(Cl)cc32)cc1-c1cccnc1` [Example 60], the figures for the IC50 on EGFR and in the assay with A431 cells were above 100 µM and 5.9 µM, respectively.

For `COc1ccc(/C=C2/C(=O)Nc3ccc(CCN4CCOCC4)cc32)cc1-c1ccsc1` [Example 26, 3-(4-Methoxy-3-thiophen-3-ylbenzylidene)-5-(2-morpholin-4-yl-ethyl)-1,3-dihydroindol-2-one], the IC50 at EGFR was above 100 µM; in the assay with A431 cells it was 3 µM.

As to `COc1ccc(/C=C2/C(=O)Nc3ccccc32)cc1-c1ccsc1` [Example 35, 3-(4-Methoxy-3-thiophen-3-ylbenzylidene)-1,3-dihydroindol-2-one], the IC50 is above 100 µM at EGFR and 13.4 µM in the assay on A431 cells.

With `CC(=O)Nc1ccc2c(c1)NC(=O)/C2=C\c1ccc2c(c1)CCC(C)(C)O2` [Example 33, N-[3-(2,2-Dimethylchroman-6-ylmethylene)-2-oxo-2,3-dihydro-1H-indol-6-yl]-acetamide], the IC50 at EGFR is above 100 µM; with A431 cells, 6.7 µM.

`COc1ccc(C=C2C(=O)Nc3cc(NC(C)=O)ccc32)cc1-c1cccc(NC(C)=O)c1` (mixture of isomers) [Example 63, N-[3-(3′-Acetylamino-6-methoxybiphenyl-3-ylmethylene)-2-oxo-2,3-dihydro-1H-indol-6-yl]-acetamide]: the IC50 at EGFR was above 100 µM; in the assay with A431 cells it was 11 µM.

With `COc1ccc(/C=C2/C(=O)Nc3ccc(Cl)cc32)cc1-c1cccs1` [Example 59, 5-chloro-3-(4-Methoxy-3-thiophen-2-ylbenzylidene)-1,3-dihydroindol-2-one], the IC50 is above 100 µM at EGFR and 6 µM in the assay with A431 cells.

With `COc1ccc(/C=C2/C(=O)Nc3ccccc32)cc1C(C)C` [Example 7, 3-(3-Isopropyl-4-methoxybenzylidene)-1,3-dihydroindol-2-one], the IC50 on EGFR was above 100 µM; with A431 cells, 1.2 µM.

For `COc1cc(C)c(/C=C2/C(=O)Nc3ncccc32)cc1C(C)C` [Example 45, 3-(5-Isopropyl-4-methoxy-2-methylbenzylidene)-1,3-dihydro-pyrrolo[2,3-b]pyridin-2-one], the IC50 at EGFR amounted to 24 µM; with A431 cells, 3.2 µM.

As usually defined, the IC50 is the point on the concentration scale where inhibition reaches its midpoint.
